For one series, the system named is CSM14.1 cells. In words: ER stress cell survival assay (thapsigargin).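 Note: survival read as CellTiter-Glo luminescence after overnight incubation.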 It is filed as cell-based. Conditions: compound 2 μM; about 15 μM thapsigargin; CSM14.1 cells. On the procedure: ER Stress Cell Survival Assay
CSM14.1 cells were maintained in Complete Medium at 32° C.; wherein the Complete Medium contained Dulbecco's modified eagle medium (DMEM) with 10% fetal bovine serum (FSB), 1% L-glutamine, 100 IU/mL penicillin, and 100 μg/mL streptomycin. The cells were recovered from cultures by trypsinization and then seeded in 384 well plates (Greiner #781098) at a concentration of 1,000 cells/well in 20 μL of DMEM Assay Medium, wherein the DMEM Assay Medium contained 2% FBS, 100 IU/mL penicillin, and 100 μg/mL streptomycin. Seeding was performed using a MultiDrop Combi reagent broadcaster. The plates were incubated overnight at 32° C.
A test compound was prepared by 2-fold serial dilution in 100% DMSO using a BIOMEK® 2000 liquid handler (Beckman Coulter). A dose-response curve containing 10 concentrations of the test compound was obtained. Using a BIOMEK® FX liquid handler (Beckman Coulter), 2.5 μL of the test compound was transferred from the 100% DMSO serial dilution plate to an intermediate plate containing 47.5 μL of DMEM Assay Medium containing 2% FBS, 100 IU/mL penicillin, and 100 μg/mL streptomycin and mixed. To reduce or eliminate the interference from the compound's precipitation, 6 μL of the diluted compound was immediately transferred to the assay plate to achieve a high compound concentration of 100 μM in 99% DMEM Assay Medium and 1% DMSO. After the assay plates were incubated for 2 hrs, 4 μL of 112.5 μM thapsigargin (TG) (DMSO stock diluted into Assay TC Medium) was dispensed into each testing well with a MultiDrop Combi reagent broadcaster for a final concentration of about 15 μM TG. The tissue culture media (4 μL) containing vehicle only was transferred manually to each control cell using a 16 channel electronic pipette. […] High luminescence indicates cell survival.
Alternatively, a test compound was tested at a single compound concentration (e.g., 2 μM) to determine the effect of the compound on cell survival in comparison with vehicle.

Another series relates to N2a cells. Put plainly: Protection against hydrogen peroxide-induced cell death, N2a. It is filed as cell-based, mouse. Conditions: compound 40 μM; hydrogen peroxide 200 μM. On the procedure:
Protection against Hydrogen Peroxide-induced Cell-death. N2a cells grown in 96-well plates were exposed to a test compound (40 μM) for 2 hrs before addition of hydrogen peroxide (200 μM). After 40 min of incubation with hydrogen peroxide, ALAMARBLUE® regent (10% v/v) was added to the wells. Fluorescence reading was taken 2 hrs after the addition of the ALAMARBLUE® regent. Cell-viability was calculated as a percentage of relative fluorescence unit (RFU) compared to control.
The results are summarized in Table 2, where A represents a value greater than 50% cell rescue, B represents a value between 10% to 50% cell rescue, C represents a value between 1% to 10% cell rescue, and D represents a value no greater than 1% cell rescue.

The nature of series [1]: Pharmacokinetics in CD-1 mice. It is filed as in vivo, mouse. Conditions: CD-1 mice. Here is the method:
Pharmacokinetics of test compounds were assessed in CD-1 mice. The compounds were formulated at 1 mg/mL in DMSO/Tween 80/water (10/10/80, vol/vol/vol) and dosed at 2 mg/kg intravenous (i.v.) or 10 mg/kg by oral gavage (P.O.) in triplicate. Blood was drawn at 0.25 h, 0.5 h, 1 hr, 2 hrs, 4 hrs, 8 hrs, and 24 hrs into EDTA containing tubes and plasma was harvested by centrifugation. Plasma (10 μL) containing 50% acetonitrile in water (5 μL) was added to 200 μL of ACN containing an internal standard. The samples were vortexed for 30 s. After centrifugation at […] and 4,000 rpm for 15 min, the supernatant was diluted 3 times with water. Then, 20 μL of diluted supernatant was injected into the LC/MS/MS system for quantitative analysis. The samples were injected onto an Agilent ZORBAX XDB-Phenyl 5μ column (50×2.10 mm). Mobile Phase A was water with 0.1% formic acid. Mobile Phase B was acetonitrile with 0.1% formic acid. Separation was achieved using a gradient of 70% A/30% B to 0% A/100% B over 2.10 min. A Shimadzu LCMS-8050 equipped with a turbo ion spray source was used for all analytical measurements. A positive ion MRM method was developed. Peak areas of the product ion were measured against the peak areas of the internal standard. Data was fit using WinNonLin (Pharsight Corporation, Mountain View, CA).

[2] abbreviates: mouse, plasma, 2 mg/kg i.v. or 10 mg/kg P.O.

As for `Cc1ccc2cccc(NC(=O)c3ccc(Br)cc3)c2n1` [Compound C1, 4-Bromo-N-(2-methylquinolin-8-yl)benzamide], the “Cell Survival” value in the series with CSM14.1 cells is given as “A (A represents a value greater than 50%)”. On to `Cc1ccc2cccc(NC(=O)c3ccccc3F)c2n1` [Compound C2, 2-Fluoro-N-(2-methylquinolin-8-yl)benzamide], for which the “Cell Survival” value in the series with CSM14.1 cells is “A (A represents a value greater than 50%)”. `Cc1ccc2cccc(NC(=O)c3ccccc3[N+](=O)[O-])c2n1` [Compound C3, 2-Nitro-N-(2-methylquinolin-8-yl)benzamide]: the “Cell Survival” value with CSM14.1 cells was “B (B represents a value between 10% and 50%)”. Same read-out and setting: under `Cc1ccc2cccc(NC(=O)c3cccc(OC(F)(F)F)c3)c2n1` [Compound C4, 3-Trifluoromethoxy-N-(2-methylquinolin-8-yl)benzamide] stands “B (B represents a value between 10% and 50%)”; under `Cc1ccc2cccc(NC(=O)c3cccc(F)c3)c2n1` [Compound C6, 3-Fluoro-N-(2-methylquinolin-8-yl)benzamide], “C (C represents a value between 1% and 10%)”; under `Cc1ccc2cccc(NC(=O)c3cccc([N+](=O)[O-])c3)c2n1` [Compound C7, 3-Nitro-N-(2-methylquinolin-8-yl)benzamide], “C (C represents a value between 1% and 10%)”. Still for that read-out and setting: to `Cc1ccc2cccc(NC(=O)c3ccc([N+](=O)[O-])cc3)c2n1` [Compound C8, 4-Nitro-N-(2-methylquinolin-8-yl)benzamide] belongs “D (D represents a value no greater than 1%)”. For `Cc1ccc2cccc(NC(=O)c3ccccc3Cl)c2n1` [Compound C9, 2-Chloro-N-(2-methylquinolin-8-yl)benzamide], in the series on CSM14.1 cells, the “Cell Survival” value was “D (D represents a value no greater than 1%)”.

Consider `Cc1ccc2cccc(NC(=O)c3ccc(OC(F)(F)F)cc3)c2n1` [Compound C11, 4-Trifluoromethoxy-N-(2-methylquinolin-8-yl)benzamide], for which the “Cell Survival” value in the series on CSM14.1 cells was “D (D represents a value no greater than 1%)”. As for `Cc1ccc2cccc(NC(=O)c3cccc(C(F)(F)F)c3)c2n1` [Compound C12, 3-Trifluoromethyl-N-(2-methylquinolin-8-yl)benzamide], in the series with CSM14.1 cells, the “Cell Survival” value is on record as “D (D represents a value no greater than 1%)”. Regarding `CCOc1ccc(C(=O)Nc2cccc3ccc(C)nc23)cc1` [Compound C13, 4-Ethoxy-N-(2-methylquinolin-8-yl)benzamide], the “Cell Survival” value in the series with CSM14.1 cells was “D (D represents a value no greater than 1%)”. The same measure, in the same setting: to `Cc1ccc2cccc(NC(=O)c3ccc(F)cc3)c2n1` [Compound C14, 4-Fluoro-N-(2-methylquinolin-8-yl)benzamide] belongs “D (D represents a value no greater than 1%)”. As to `Cc1ccc2cccc(NC(=O)c3cccc(Cl)c3)c2n1` [Compound C15, 3-Chloro-N-(2-methylquinolin-8-yl)benzamide], in the series on CSM14.1 cells, the “Cell Survival” value is “D (D represents a value no greater than 1%)”.

Turning to `Cc1ccc2cccc(NC(=O)c3cccc(Br)c3)c2n1` [Compound C16, 3-Bromo-N-(2-methylquinolin-8-yl)benzamide], the “Cell Survival” value in the series on CSM14.1 cells is “D (D represents a value no greater than 1%)”. Regarding `Cc1ccc2cccc(NC(=O)c3cccs3)c2n1` [Compound G1, N-(2-Methylquinolin-8-yl)thiophene-2-carboxamide], the “N2a Cells (H2O2-induced) cell rescue” value with N2a cells is on record as “B (B represents a value between 10% to 50% cell rescue)”. Still for that read-out and setting: to `Cc1ccc2cccc(NC(=O)c3sccc3C)c2n1` [Compound G3, 3-Methyl-N-(2-methylquinolin-8-yl)thiophene-2-carboxamide] belongs “B (B represents a value between 10% to 50% cell rescue)”.

Consider `Cc1ccc2cccc(NC(=O)c3ccc(Cl)s3)c2n1` [Compound G4, 5-Chloro-N-(2_methylquinolin-8-yl)thiophene-2-carboxamide], for which the “N2a Cells (H2O2-induced) cell rescue” value with N2a cells was “B (B represents a value between 10% to 50% cell rescue)”. As for `CC(=O)c1ccc(C(=O)Nc2cccc3ccc(C)nc23)s1` [Compound G5, 5-Acetyl-N-(2-methylquinolin-8-yl)thiophene-2-carboxamide], in the series with N2a cells, the “N2a Cells (H2O2-induced) cell rescue” value is given as “B (B represents a value between 10% to 50% cell rescue)”.

By AUC is commonly meant concentration integrated over time. Low readings indicate less exposure, high ones more exposure. Usually Cmax stands for the peak of the concentration-time curve. In general, half-life refers to the time in which the quantity being followed falls by half. On to `Cc1ccc2cccc(NC(=O)c3cc(Br)cs3)c2n1` [Compound G8, 4-Bromo-N-(2-methylquinolin-8-yl)thiophene-2-carboxamide], for which the F in series [1] (10 mg/kg P.O. vs 2 mg/kg i.v.) was 0.12%. In series [1] (setting [2]), this molecule showed an AUC of 0.78 ng·h/mL, a Cmax of 10 nM and a half-life of 36 min. Take `O=C(Nc1cccc2cccnc12)c1ccc(Br)s1` [Compound H1, 5-Bromo-N-(quinolin-8-yl)thiophene-2-carboxamide]: the “N2a Cells (H2O2-induced) cell rescue” value with N2a cells was “B (B represents a value between 10% to 50% cell rescue)”.

`O=C(Nc1cccc2cccnc12)c1cccs1` [Compound H2, N-(quinolin-8-yl)thiophene-2-carboxamide]: the “N2a Cells (H2O2-induced) cell rescue” value in the series with N2a cells is on record as “B (B represents a value between 10% to 50% cell rescue)”.

`Cc1ccc(C(=O)Nc2cccc3cccnc23)s1` [Compound H3, 5-Methyl-N-(quinolin-8-yl)thiophene-2-carboxamide]: in the series on N2a cells, the “N2a Cells (H2O2-induced) cell rescue” value is “A (A represents a value greater than 50% cell rescue)”. Still for that read-out and setting: to `Cc1ccsc1C(=O)Nc1cccc2cccnc12` [Compound H4, 3-Methyl-N-(quinolin-8-yl)thiophene-2-carboxamide] belongs “A (A represents a value greater than 50% cell rescue)”; to `O=C(Nc1cccc2cccnc12)c1ccc(Cl)s1` [Compound H5, 5-Chloro-N-(quinolin-8-yl)thiophene-2-carboxamide], “B (B represents a value between 10% to 50% cell rescue)”. Same read-out and setting: under `CC(=O)c1ccc(C(=O)Nc2cccc3cccnc23)s1` [Compound H6, 5-Acetyl-N-(quinolin-8-yl)thiophene-2-carboxamide] stands “B (B represents a value between 10% to 50% cell rescue)”; under `O=C(Nc1cccc2cccnc12)c1cc2ccccc2o1` [Compound H7, N-(Quinolin-8-yl)benzofuran-2-carboxamide], “B (B represents a value between 10% to 50% cell rescue)”; under `O=C(Nc1cccc2cccnc12)c1ccc([N+](=O)[O-])s1` [Compound H8, 5-Nitro-N-(quinolin-8-yl)thiophene-2-carboxamide], “B (B represents a value between 10% to 50% cell rescue)”.

On to `O=C(Nc1cccc2cccnc12)c1cc(Br)cs1` [Compound H9, 4-Bromo-N-(quinolin-8-yl)thiophene-2-carboxamide], for which, in the series with N2a cells, the “N2a Cells (H2O2-induced) cell rescue” value was “A (A represents a value greater than 50% cell rescue)”. Take `O=C(Nc1cccc2cccnc12)c1sc(Br)cc1Br` [Compound H10, 3,5-Dibromo-N-(quinolin-8-yl)thiophene-2-carboxamide]: the “N2a Cells (H2O2-induced) cell rescue” value in the series on N2a cells was “B (B represents a value between 10% to 50% cell rescue)”. As for `O=C(Nc1cccc2cccnc12)c1cc(Br)c(Br)s1` [Compound H11, 4,5-Dibromo-N-(quinolin-8-yl)thiophene-2-carboxamide], the “N2a Cells (H2O2-induced) cell rescue” value with N2a cells is given as “A (A represents a value greater than 50% cell rescue)”.

The record behind these values is patent US11890279B2, “Quinolines that modulate SERCA and their use for treating disease” (Neurodon Corporation, priority 2020, dated 2024).
